Laboratory results published in ChEMBL document CHEMBL4411277, “Structural Revision of Macropodumine A and Structure of 2-Deoxymacropodumine A, Daphniphyllum Alkaloids with 11-Membered Macrolactone Rings” (J Nat Prod, 2019).

Test system: HeLa
Assay: Cytotoxicity against human HeLa cells assessed as reduction in cell viability by MTT assay
Format: functional, cell-based

Q: With `C[C@@H]1CN2C[C@H]3CCC(=O)OCC[C@H]4CC5=C(C4=O)[C@@]3(C)[C@H]2C[C@H]1C5=O` as the molecule, how does the IC50 read?
A: 3.89 µM
